Like-named read-outs stand apart in the source and are kept apart here.
Tests used:
[1] = test system: MK801-induced schizophrenia-like behavior; assay: MK801-induced schizophrenia-like behavior (open field, distance traveled); assay type: in vivo, C57BI/6J mice
Experimental: Ninety-nine male C57BI/6J mice were divided randomly into 11 groups. Mice were placed in a room 1 h before testing. They were administered (p.o.) vehicle (0.1 ml/10 g), 50A (0.3, 1, 3, and 10 mg/kg; 0.1 ml/10 g), or 50B (0.3, 1, 3, and 10 mg/kg; 0.1 ml/10 g). […] Then, mice were administered (i.p.) MK801 (0.8 mg/kg dissolved in physiologic saline; 0.1 ml/10 g). After 30 min, the distance that mice traveled was measured.
Forty-six male C57BI/6J mice were divided randomly into four groups. The CN group contained four mice. […] The administration method described previously was employed.

[2] = target: T1, human dopamine D2L receptors (Homo sapiens, UniProt P14416); assay: cAMP assay, inhibition at human dopamine D2L receptors; assay type: cell-based
T1 construct: expressed in transfected cells; host or cells: Flp-In-CHO cells
T1 sequence (P14416 whole entry): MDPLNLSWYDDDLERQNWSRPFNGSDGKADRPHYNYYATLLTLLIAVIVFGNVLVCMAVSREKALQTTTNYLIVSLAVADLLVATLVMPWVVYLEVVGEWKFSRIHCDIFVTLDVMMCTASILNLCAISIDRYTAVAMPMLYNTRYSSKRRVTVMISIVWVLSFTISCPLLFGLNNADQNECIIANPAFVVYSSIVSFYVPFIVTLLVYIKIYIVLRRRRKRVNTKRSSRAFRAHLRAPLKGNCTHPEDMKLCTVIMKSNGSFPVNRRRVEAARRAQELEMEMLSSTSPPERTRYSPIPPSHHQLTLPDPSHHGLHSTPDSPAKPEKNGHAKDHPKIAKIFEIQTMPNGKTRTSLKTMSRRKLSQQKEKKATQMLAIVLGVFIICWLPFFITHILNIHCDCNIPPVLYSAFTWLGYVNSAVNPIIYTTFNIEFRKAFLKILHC
Experimental: (§1) With regard to D2L and D2S, recombinant Flp-In™-CHO cells expressing human dopamine D2L receptors or D2S receptors were cultured with Ham’s F-12K (Kaighn’s) medium supplemented with 10% FBS, penicillin (100 U/ml), streptomycin (100 μg/ml), and hygromycin B (600 μg/ml) at 37°C in an atmosphere of 5% CO2. The methods of cell inoculation and compound treatment were the same as those for TAAR1, and haloperidol was used as the MAX control. Percentage inhibition was calculated using the following equation: Inhibition %=mean RLUtest sample−mean RLUvehicle control/mean RLUMAX control−mean RLUvehicle control×100%.

[3] = target: T2, human 5-HT1A (Homo sapiens, UniProt P08908); assay: Calcium (FLIPR) assay, agonist activity at human 5-HT1A; assay type: cell-based
T2 construct: expressed in transfected cells; host or cells: Gα15-CHO-Clone cells
T2 sequence (P08908 1-422): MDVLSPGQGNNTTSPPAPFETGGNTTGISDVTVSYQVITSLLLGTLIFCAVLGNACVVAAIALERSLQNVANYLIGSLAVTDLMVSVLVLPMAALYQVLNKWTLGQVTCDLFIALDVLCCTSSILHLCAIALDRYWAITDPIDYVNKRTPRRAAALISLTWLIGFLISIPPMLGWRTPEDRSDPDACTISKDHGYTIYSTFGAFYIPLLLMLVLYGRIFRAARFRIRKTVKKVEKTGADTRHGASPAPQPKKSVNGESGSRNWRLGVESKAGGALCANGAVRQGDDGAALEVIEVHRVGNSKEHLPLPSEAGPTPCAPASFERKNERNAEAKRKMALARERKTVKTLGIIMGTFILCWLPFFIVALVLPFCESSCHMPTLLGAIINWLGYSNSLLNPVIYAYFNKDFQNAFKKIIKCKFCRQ
Experimental: With respect to 5-HT1A, recombinant Gα15-CHO-Clone cells expressing human 5-HT1A were used in this test. Cells were cultured with MEM supplemented with 10% FBS, penicillin (100 U/ml), streptomycin (100 μg/ml), and hygromycin B (600 μg/ml) and were seeded in 384-well microplates. Cells were stimulated with different concentrations of compounds for 2 h at 37°C, and the agonistic effect was determined using the FLIPR Calcium Assay Kit. Serotonin was used as the MAX control. Percentage activity was calculated using the following equation: Activity %=mean RLUtest sample−mean RLUvehicle control/mean RLUMAX control−mean RLUvehicle control×100%.

[4] = Liver microsomal stability, monkey
[5] = target: T3, D2S receptors (Homo sapiens, UniProt P14416); assay: cAMP assay, inhibition at human dopamine D2S receptors; assay type: cell-based
T3 construct: expressed in transfected cells; host or cells: Flp-In-CHO cells
T3 sequence (P14416 1-414 isoform P14416-2): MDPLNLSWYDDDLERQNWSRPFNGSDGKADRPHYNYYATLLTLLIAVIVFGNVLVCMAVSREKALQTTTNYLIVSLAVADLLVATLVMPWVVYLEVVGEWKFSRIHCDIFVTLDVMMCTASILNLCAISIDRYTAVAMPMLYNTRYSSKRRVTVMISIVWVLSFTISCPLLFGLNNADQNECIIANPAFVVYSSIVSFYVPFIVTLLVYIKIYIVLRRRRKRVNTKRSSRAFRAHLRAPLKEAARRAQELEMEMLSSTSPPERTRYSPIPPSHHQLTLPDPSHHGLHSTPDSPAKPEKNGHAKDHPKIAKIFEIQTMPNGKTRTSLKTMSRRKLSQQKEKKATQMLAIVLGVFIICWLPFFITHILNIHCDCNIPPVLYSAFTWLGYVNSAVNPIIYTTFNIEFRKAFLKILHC
Experimental: as §1

[6] = Pharmacokinetics study in rats; assay type: in vivo, Sprague–Dawley rats
Experimental: Compound 50B was dissolved in physiologic (0.9%) saline. Male and female rats were fasted overnight before dosing to avoid the possible effects of food. Compound 50B was administered via intragastric (5 mg/kg) and intravenous (2 mg/kg) routes to female and male rats. Approximately 200 μL of whole blood was collected into heparin-coated tubes at 0.083, 0.25, 0.5, 1, 2, 3, 4, 6, 8, 12, and 24 h after dosing. Plasma was collected immediately by centrifugation (8,000 g, 5 min, room temperature). Blood was placed in a heparinized Eppendorf™ tube. Plasma was centrifuged, and the concentration of compounds in the sample was determined by LC-MS/MS after pre-treatment. Drug-concentration data were processed in a […] using WinNonlin™ 6.3 (Pharsight, Mountain View, CA, United States).

[7] = test system: catalepsy; assay: Catalepsy assay (bar test); assay type: in vivo, C57BI/6J mice; settings: 100 mg/kg p.o., 30 and 90 min after administration
Experimental: Twenty-four male C57BI/6J mice were divided randomly into four groups. Mice were placed in a room 1 h before testing. […] The front paws of mice were placed on a horizontal metal bar raised 2 inches above a Plexiglas™ platform 30 min and 90 min after administration. The time the front paws of mice were placed on the platform was recorded at ≤30 s per trial. Each test was repeated three times.

[8] = Tissue distribution (brain and plasma) in rats; assay type: in vivo, Sprague–Dawley rats
Experimental: Rats (three males and three females) were sacrificed at 0.25, 1, or 6 h after administration of 50B (5 mg/kg, i.g.). Blood and brain tissues were harvested. The concentration of compounds in all tissue and blood samples was determined by LC-MS/MS. Drug concentration data were processed in a non-atrioventricular model using WinNonlin™ 6.3.

[9] = Sprague-Dawley, rat, plasma, iv, male rats, 2 mg/kg
[10] = Sprague-Dawley, rat, plasma, po, male rats, 5 mg/kg, i.g.
[11] = male, Sprague-Dawley, rat, plasma, po, 5 mg/kg, i.g.

c1csc([C@@H]2CNCCO2)c1 [Compound 50B]
MK801-induced increase in distance traveled ([1]; mice, 10 mg/kg p.o., MK801 0.8 mg/kg i.p.): significantly reduced | Inhibition of MK801-induced schizophrenia-like behavior (effective doses) ([1]; mice, single oral dose 0.3, 1, 3 and 10 mg/kg, MK801 0.8 mg/kg i.p.): markedly at 1, 3, and 10 mg/kg | Distance moved by mice in the presence or absence of MK801 ([1]; single oral dose 0.3, 1, 3 and 10 mg/kg): significantly reduced the distance moved by mice | IC50 [2]: > 100 µM | Emax ([2]; haloperidol as MAX control, up to 100 μM, read-out: dopamine D2L antagonist Emax): 5.49% | EC50 [3]: 99.8 µM | Emax ([3]; serotonin as MAX control, up to 100 μM, read-out: 5-HT1A agonism Emax): 50.3% | Remaining (T = 60 min) ([4]; Monkey liver microsomes, 60 min): 85.1% | CLint scaled ([4]; monkey, liver microsomes): < 13.5 mL/min/kg | half-life ([4]; monkey, microsomes): > 186 min | IC50 [5]: > 100 µM | Emax ([5]; haloperidol as MAX control, up to 100 μM, read-out: dopamine D2S antagonist Emax): 24.9% | Cmax [6, 9]: 6.8 µM | MRT last [6, 9]: 1.46 ± 0.231 h | Cmax [6, 10]: 4.38 µM | MRT last [6, 10]: 3.03 ± 0.625 h | CL/F ([6]; Sprague-Dawley, rat, plasma, po, male rats, 5 mg/kg, i.g., read-out: CL/F (converted)): 26 mL/min/kg | Vd/F ([6]; Sprague-Dawley, rat, plasma, po, male rats, 5 mg/kg, i.g., read-out: Vz/F): 2.86 ± 0.104 L/kg | CL/F ([6]; male rats, 2 mg/kg, i.v.): 22.2 ± 3.52 mL/min/kg | Vz/F ([6]; male rats, 2 mg/kg, i.v.): 2.48 ± 0.485 L/kg | AUC(0-t) ([6]; male rats, 5 mg/kg, i.g.): 18,929 ± 1774 h* nM | T1/2 ([6]; male rats, 5 mg/kg, i.g.): 1.28 ± 0.140 h | half-life ([6]; male, Sprague-Dawley, rat, plasma, iv, 2 mg/kg): 78.6 ± 18.8 min | AUC(0-t) ([6]; male, Sprague-Dawley, rat, plasma, iv, 2 mg/kg, i.v., read-out: AUC0-t): 8.98 µM·h | bioavailability ([6]; male, Sprague-Dawley, rat, plasma, oral, 5 mg/kg, i.g. vs 2 mg/kg i.v., read-out: F (oral bioavailability)): ~84.3% | Tmax [6, 11]: ~50 min | half-life [6, 11]: ~76.8 min | AUC(0-t) ([6]; male, Sprague-Dawley, rat, plasma, po, 5 mg/kg, i.g., read-out: AUC0-t): ~18.9 µM·h | Time mice spent holding bars (catalepsy) [7]: did not increase this time | Concentration ratio brain to plasma compared with SEP-856 ([8]; rats, 5 mg/kg i.g.): increased significantly compared with that of SEP-856 | Plasma concentration compared with SEP-856 ([8]; rats, 5 mg/kg i.g., same time point): lower than that of SEP-856 | Detection in rat brain ([8]; single intragastric administration, 5 mg/kg, 0.25 to 6 h): detected in rat brains from 0.25 to 6 h
